Experimental data taken from patent US11116739B2, “Fixed dose combinations and formulations comprising ETC1002 and one or more statins and methods of treating or reducing cardiovascular disease” (Esperion Therapeutics, Inc., priority 2015, dated 2021).
Like-named read-outs stand apart in the source and are kept apart here.

Legend:
[1] = clinical pharmacokinetics of ETC-1002; assay type: in vivo, human
Experimental: (§1) The entire clinical program for ETC-1002 (conducted between 2009 and 2015) has included approximately 1000 subjects and patients, with approximately 700 receiving ETC-1002 doses ranging from 2.5 up to 240 mg/day (multiple doses) for up to 12 weeks. There are 15 completed clinical studies (nine Phase 1 and six Phase 2), and integrated data summaries are based on the 6 completed Phase 2 studies.

[2] = Study 1002-012: effect of steady-state ETC-1002 on single-dose PK of simvastatin, pravastatin, rosuvastatin
Experimental: Serial PK blood samples were collected through the morning of Day −3. Starting on Day 1, all subjects received oral ETC-1002, 240 mg, once daily for 16 days. On the morning of Day 12, in addition to ETC-1002, subjects received a single dose of a statin drug, based on their cohort assignment; serial PK blood samples were collected.

[3] = pivotal 12-month monkey study; settings: in vivo, oral, read-out: NOAEL dose
Experimental: (§2) In the pivotal 6-month rat study, the no-observed-adverse-effect level (NOAEL) dose was 30 mg/kg/day in male and female rats and the corresponding area under the curve during 24 hours (AUC0-24) values of the sum of ETC-1002 and ESP15228 were up to 528 μg·hr/mL. In the pivotal 12-month monkey study, the NOAEL dose was 60 mg/kg/day and the corresponding AUC0-24 value of the sum of ETC-1002 and ESP15228 was up to 4478 μg·hr/mL.

[4] = system: mice, rats, and monkeys; experiment: oral toxicology studies up to 12 months; assay type: in vivo
Description: In toxicology studies, evaluations of ETC-1002 in mice, rats, and monkeys in oral studies up to 12 months in duration have been completed. […] Routine clinical laboratory parameters will continue to be monitored carefully in clinical trials.

[5] = system: major cytochrome P450 (CYP) enzymes; experiment: in vitro CYP inhibition/induction studies; assay type: in vitro ADME; settings: at clinically relevant plasma concentrations
[6] = system: rodent models of dyslipidemia; experiment: primary pharmacology in rodent models of dyslipidemia; assay type: in vivo
Experimental: The primary pharmacology of ETC-1002 was evaluated in several well-characterized and predictive rodent models of dyslipidemia. In these studies, ETC-1002 lowered LDL-C and triglycerides (TGs) and increased high-density lipoprotein cholesterol (HDL-C).

[7] = drug interaction with metformin or Ortho-Novum 1/35; assay type: in vivo, human
[8] = safety pharmacology studies; settings: over the range of exposures intended for clinical studies
[9] = Study 1002-007: effect of ETC-1002 on the PK of atorvastatin
Experimental: All patients started ETC-1002 at a dose of 60 mg/day, which was up-titrated every 2 weeks to 120 mg/day, then 180 mg/day, then 240 mg/day.

[10] = system: patients; experiment: 6 integrated Phase 2 studies (safety, TEAEs, SAEs); assay type: in vivo, human
Experimental: as §1
The greatest number of patients experiencing at least 1 TEAE among ETC-1002-treated groups occurred in the ETC-1002 40-mg dose group (75.6%); this frequency was similar to the frequency of patients experiencing at least 1 TEAE in the placebo group (74.2%).

[11] = system: major drug transporters; experiment: in vitro drug transporter inhibition; assay type: in vitro ADME
[12] = system: QT/QTc; experiment: thorough QT/QTc (TQT) study (1002-022); assay type: in vivo, human; settings: ETC-1002 240 mg daily for 9 days
[13] = in-vitro and in-vivo genetic toxicology assays
[14] = system: patients; experiment: integrated analysis of six Phase 2 studies (efficacy); assay type: in vivo, human
Experimental: as §1

[15] = pivotal 6-month rat study; settings: both sexes, in vivo, oral, male and female rats, read-out: no-observed-adverse-effect level (NOAEL) dose
Experimental: as §2

[16] = food-effect/bioequivalence study; parameters: species or system human; settings: in vivo

CC(C)(CCCCCC(=O)CCCCCC(C)(C)C(=O)O)C(=O)O [ESP15228]
Cmax dose proportionality ([1]; human, in vivo): increase in proportion to increasing dose
mean t1/2 ([1]; human, in vivo): 20 to 33 h
Tmax ([1]; oral): 7 h
plasma concentrations and PK parameters ([2]; after 12th daily 240-mg dose of ETC-1002 with single dose simvastatin 20 mg, pravastatin 40 mg or rosuvastatin 10 mg): consistent with those in previous monotherapy studies

CC(C)(CCCCCC(O)CCCCCC(C)(C)C(=O)O)C(=O)O [ETC-1002, 8-hydroxy-2,2,14,14 tetramethylpentadecanedioic acid]
NOAEL at 12 months [3]: 60 mg/kg/day
Cmax dose proportionality ([1]; human, in vivo): increase in proportion to increasing dose
Tmax ([1]; human, in vivo, oral, read-out: Tmax): < 4 h
half-life ([1]; human, in vivo, oral, read-out: mean t1/2): 15 to 27 h
systemic exposure, AUCtau,ss, dose proportionality ([1]; up to 120 mg daily, linear from 140 to 220 mg daily doses): slightly more than dose-proportional increase
central nervous system, respiratory, or cardiovascular liabilities ([4]; oral, up to 12 months, mice, rats, monkeys): No significant central nervous system, respiratory, or cardiovascular liabilities have been identified
target organs in repeat-dose studies ([4]; rats and monkeys, changes reversible following cessation of treatment): liver and kidney
inhibition or induction of major CYP enzymes [5]: neither an inhibitor nor inducer
LDL-C [6]: lowered
high-density lipoprotein cholesterol (HDL-C) [6]: increased
triglycerides (TGs) [6]: lowered
drug interaction ([7]; combination of ETC-1002 and Ortho-Novum 1/35 (combined oral contraceptive)): No drug interaction
drug interaction ([7]; combination of ETC-1002 and metformin): No drug interaction
risks for patients identified in safety pharmacology [8]: did not identify any significant risks
LDL-C lowering ([9]; ETC-1002 in combination with atorvastatin 10 mg vs atorvastatin alone): incremental LDL-C lowering beyond atorvastatin alone
deaths ([10]; ETC-1002 120 mg group, Study 1002-008, Study Day 98, considered possibly related to study drug): One patient died with cause unknown
frequency of TEAEs, SOC infections and infestations ([10]; human, in vivo): 11.6-25%
patients experiencing at least 1 TEAE ([10]; human, in vivo): 75.6%
dose-related trends in the frequency of TEAEs ([10]; in vivo): there did not appear to be any dose-related trends
dose-related trends in the frequency of myalgia ([10]; in vivo): no dose-related trends
muscle-related SAEs ([10]; in vivo): no muscle-related SAEs
other measures of safety including laboratory results ([10]; in vivo): no clinically significant trends
reports of rhabdomyolysis ([10]; in vivo): no reports
safety profile ([10]; in vivo): excellent safety profile
inhibition of major drug transporters [11]: does not appear to inhibit
QT interval duration [12]: does not prolong
change in QTc [12]: no significant change
effect on heart rate and PR and QRS intervals [12]: no clinically significant effect
clastogenicity [13]: non-clastogenic
mutagenicity [13]: non-mutagenic
LDL-C, placebo-adjusted LS means for percent change from baseline ([14]; 180 mg on top of stable statin therapy): ~22%
LDL-C, placebo-adjusted LS means for percent change from baseline ([14]; ETC-1002 180 mg monotherapy): approximately 32%
non-HDL-C, TC, LDL particle number and apoB ([14]; accompanying reduced LDL-C): corresponding reductions
effect on HDL-C and TGs ([14]; in vivo): generally neutral
NOAEL at 6 months [15]: 30 mg/kg/day
food effect [16]: can be taken without regard to food

CCC(C)(C)C(=O)O[C@H]1C[C@@H](C)C=C2C=C[C@H](C)[C@H](CC[C@@H]3C[C@@H](O)CC(=O)O3)[C@H]21 [simvastatin, reference compound]
exposure (AUC0-inf) increased ([2]; single dose simvastatin 20 mg with steady-state ETC-1002 240 mg vs simvastatin alone, healthy subjects): 29%

CC(C)c1c(C(=O)Nc2ccccc2O)c(-c2ccccc2)c(-c2ccc(F)cc2)n1CC[C@@H](O)C[C@@H](O)CC(=O)O [ortho-hydroxy atorvastatin]
higher exposure than atorvastatin alone ([9]; 10 mg atorvastatin plus 120 mg ETC-1002 daily vs 10 mg atorvastatin alone): approximately 60%
exposure versus atorvastatin alone ([9]; 10 mg atorvastatin plus ETC-1002 240 mg): higher exposure
